Laboratory results as given in US10285969B2, “Mangiferin-6-O-berberine salt and preparation method and use thereof” (CHANGZHOU DEZE MEDICAL SCIENCE CO., LTD, priority 2015, dated 2019).

Tests used:
[1] = test system: non-alcoholic fatty liver combined with type 2 diabetes mellitus; assay: Improvement of metabolic disorder indices in patients, oral tablets for six months; assay type: in vivo, human; conditions: after six months, tablets 75 mg two times per day oral
Description: The patients according to the criteria of diagnosing non-alcoholic fatty liver combined with type 2 diabetes mellitus oral administrated mangiferin-6-O-berberine salt tablets 75 mg (for the preparation method, reference may be made to Example 6) two times per day.

AMPK = assay: Activation of AMPK in L6 cells (Western blot of phospho-AMPK and phospho-ACC); assay type: cell-based, rat; conditions: 1.25-5 μmol/L, 3 hours, dose-dependent
Description: The mangiferin-6-O-berberine salt dihydrate yielded using the method as disclosed in the above examples dissolves in DMSO. Before use, the mangiferin-6-O-berberine salt dihydrate is diluted by a culture medium or HBS. The ultimate concentration of DMSO is no more than 0.2%.
The rat L6 cell line is purchased from the ATCC. HG-DMEM is purchased GIBCO™. Fetal bovine serum (FBS) is purchased from Hyclone. Anti-AMPK, anti-ACC, antiphospho-AMPK (Thr172), antiphospho-ACC (ser79) polyclonal antibodies are purchased from Cell Signal Technology.
L6 cells were grown in HG-DMEM containing 10% (v/v) FBS, 100 U/ml penicillin and 100 U/ml streptomycin in a humidified atmosphere of 5% CO2 at 37° C. When the cells covered 60%, the medium was switched to HG-DMEM with 2% FBS and the culture medium was replaced every two days until the cells differentiation reached 90%.
Cells in 6-well plates were starved in serum-free HG-DMEM, and then different concentration gradient samples were added into serum-free HG-DMEM; the concentration of DMSO is 0.2%. The samples incubated for 3 hours in the cells. […]
Samples were electrophoresed on 10% SDS-polyacrylamide gels, and transferred to […] membranes under 100V and 1-2 hours in the transmembrane instrument. Protein in the gel was transferred to nitrocellulose membrane under the state of half dry, and the band was determined by Ponceau S (Ponceau S). […]

[2] = Pharmacokinetic comparison after single intragastric administration to SD rats; assay type: in vivo
Description: (§1) Sample A: Mangiferin-6-O-berberine salt dihydrate
Sample B: Mangiferin-berberine salt yielded using the method disclosed in WO2010/145192A1.
A single intragastric administration of sample of A or B was given to SD rats at the dosage of 100 mg/kg and blood was sampled from jugular vein at 0, 0.083, 0.25, 0.5, 1, 1.5, 2, 3, 4, 5, 6, 7, 8, 12 and 24 h.
Preparation of the mangiferin reference solution: Mangiferin reference was weighed accurately and put into a 25 ml volumetric flask; methanol was added to make mangiferin dissolve, diluted to graduation. The mangiferin reference mother liquor is yielded for reserve. An appropriate amount of mangiferin reference mother liquor was taken out accurately and diluted to prepare the mangiferin reference solutions having a concentration of 2, 5, 10, 50, 100, 200 ng/ml.
Preparation of the berberine hydrochloride reference solution: The berberine hydrochloride reference was weighed accurately and put into a 25 ml volumetric flask; methanol was added to make the berberine hydrochloride dissolve, and dilute to graduation. The berberine hydrochloride reference mother liquor was yielded for reserve. An appropriate amount of berberine hydrochloride reference mother liquor was taken out accurately and diluted to prepare reference solution whose berberine concentration is 0.2, 0.5, 2, 10, 20, 50 ng/ml.
Preparation of the internal standard solution: Glibenclamide was weighed accurately and put into a 25 ml volumetric flask; acetonitrile was added to make glibenclamide dissolve, and dilute to graduation. The internal standard solution of glibenclamide was yielded, having a concentration of 50 ng/ml.
Blood sample processing method: Rat blood was put in a heparin anticoagulant centrifuge tube and centrifuged for 10 minutes at 6000 rpm, and the plasma was taken for reserve at −20° C. […]
The pharmacokinetic parameters are calculated with a non compartmental model in Pharsight Phoenix 6.3.

[3] = Stability under a high-humidity environment (moisture absorption weight gain); assay type: physicochemical
Description: as §1
(§2) Sample B: Mangiferin-berberine salt yielded using the method as disclosed in WO2010/145192A1.
2. Instrument: One ten-thousandth electronic balance (Sartorius, Germany)
Weigh up accurately appropriate amount sample A in 3 glass gardens and sample B in 3 glass gardens separately; put the samples in a drug stability chamber with the condition being set to: 25° C./90% RH±5% RH and storage for 10 days. Weigh the samples accurately on the fifth day and tenth day; record the results of weighing and calculate weight percentage of moisture absorption.

[4] = Physical and chemical properties: solubility in solvents; assay type: physicochemical
Description: The chemical structure of the mangiferin-6-O-berberine salt is as follows: […]

[5] = Solubility in the hydrochloric acid solution of pH 1; assay type: physicochemical
Description: as §1, §2
2. Instrument: PHS-3C pH meter (Shanghai Kangyi)
Take pure water; add hydrochloric acid to adjust pH to 1 (25° C.±2° C.). Take the water 50 ml to different triangular flask; weigh up accurately 200 mg sample A and sample B which have been ground into powders and put them into the triangular flasks separately, shake and observe dissolved phenomena.
Take the water 50 ml to different triangular flasks; weigh up accurately sample A 400 mg and 600 mg which have been ground into powders and put the powders into the triangular flasks separately, shake and observe dissolving phenomena.

[6] = single intragastric 100 mg/kg, 0-24 h, n = 3, mean ± SD
[7] = hydrochloric acid solution of pH 1

## COc1ccc2cc3[n+](cc2c1OC)CCc1cc2c(cc1-3)OCO2.O=c1c2cc(O)c([O-])cc2oc2cc(O)c([C@@H]3O[C@H](CO)[C@@H](O)[C@H](O)[C@H]3O)c(O)c12 [Mangiferin-6-O-berberine salt]
[1]; n = 8, mean ± SD, base line 136.50
  ALT: 51.85 U/L
[1]; n = 8, base line 0.447
  APRI index: 0.203
[1]; n = 8, base line 0.60
  Urine microalbumin (1^+ is seen as 1): 0
[1]; n = 8, base line 3.56
  TG: 1.41 mmol/L
[1]; n = 8, base line 4.12
  Atherogenic index (AI): 3.10
[1]; n = 8, base line 7.18
  HbA1C: 5.80%
[1]; n = 8, base line 73.35
  Weight: 62.34 kg
[1]; n = 8, base line 83.32
  AST: 39.20 U/L
[1]; n = 8, base line 94.79
  Diastolic pressure: 76.39 mmHg
[1]; n = 8, base line 153.77
  Systolic pressure: 125.86 mmHg
[1]; n = 8, base line 197.99
  INS: 56.08 pmol/L
[1]; n = 8, base line fatty liver
  Liver color Doppler ultrasound: normal
[1]; n = 8, base line −7.12
  ISI: −5.80
AMPK
  phosphorylation of ACC: enhances significantly
  phosphorylation of AMPK: enhances significantly
[2]; oral administration 100 mg/kg
  AUC relative to that of the mangiferin-berberine salt: 2 times
[2]; [6]
  AUC0-t of Berberine in plasma: 669.72 ± 312.83 ng·h/mL
  AUC0-t of Mangiferin in plasma: 1831.11 ± 510.25 ng·h/mL
[3]
  weight percentage of moisture absorption (hygroscopicity) compared with the mangiferin-berberine salt disclosed in WO2010/145192A1: much smaller
[4]; dilute hydrochloric acid
  solubility in dilute hydrochloric acid: slightly soluble
[4]; methanol
  solubility in methanol: slightly soluble
[4]; water
  solubility in water: almost insoluble
[5]; [7]
  solubility relative to the mangiferin-berberine salt disclosed in WO2010/145192A1: three times
  stability (of the solution) compared with the mangiferin-berberine salt disclosed in WO2010/145192A1: much better
[5]; pH 1, 25° C.±2° C.
  solubility in the hydrochloric acid solution of pH 1: 12 mg/ml
